pEC50, pIC50: −log10 of the molar value. Square brackets hold non-standard residues; d marks the D form. Peptide text beside a SMILES is read from it. * marks the point of attachment. Asp(3,3-(CH2)4) = N[C@H](C(=O)O)C1(C(=O)O)CCCC1; Dibenzylacetyl = O=C(C(Cc1ccccc1)Cc1ccccc1)*; Leu(γ-Me)ol = CC(C)(C)C[C@@H](CO)N*; Tle = CC(C)(C)[C@H](N)C(=O)O; NMeV = CN[C@H](C(=O)O)C(C)C; Pyrrolidide = C1CCN(*)C1

Experiment [1] deals with T1, mouse Y177F-R2 with recombinant mouse R1 (Mus musculus, UniProt P07742+P11157, Y177F).
T1 sequence (P07742 1-792): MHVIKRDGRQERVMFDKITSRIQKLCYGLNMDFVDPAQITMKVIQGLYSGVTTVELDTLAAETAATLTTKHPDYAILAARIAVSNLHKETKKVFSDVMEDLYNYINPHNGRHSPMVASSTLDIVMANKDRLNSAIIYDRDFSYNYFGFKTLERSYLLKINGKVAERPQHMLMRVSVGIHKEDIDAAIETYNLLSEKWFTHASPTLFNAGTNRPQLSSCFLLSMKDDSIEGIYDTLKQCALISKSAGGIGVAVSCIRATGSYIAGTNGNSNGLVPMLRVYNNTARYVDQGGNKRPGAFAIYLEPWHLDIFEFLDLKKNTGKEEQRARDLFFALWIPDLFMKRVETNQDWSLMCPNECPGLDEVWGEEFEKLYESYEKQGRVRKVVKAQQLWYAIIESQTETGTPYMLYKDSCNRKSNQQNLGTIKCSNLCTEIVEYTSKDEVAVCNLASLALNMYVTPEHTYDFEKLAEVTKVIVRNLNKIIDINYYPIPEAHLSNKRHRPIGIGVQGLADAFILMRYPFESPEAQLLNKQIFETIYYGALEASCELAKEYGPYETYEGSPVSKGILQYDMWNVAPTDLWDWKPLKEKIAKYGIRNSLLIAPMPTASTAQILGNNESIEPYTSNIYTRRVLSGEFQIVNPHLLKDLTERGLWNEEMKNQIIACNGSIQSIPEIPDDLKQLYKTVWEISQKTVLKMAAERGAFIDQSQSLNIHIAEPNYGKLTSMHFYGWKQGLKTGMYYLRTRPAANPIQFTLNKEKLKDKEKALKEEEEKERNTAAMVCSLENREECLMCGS
T1 sequence (P11157 1-390 Y177F): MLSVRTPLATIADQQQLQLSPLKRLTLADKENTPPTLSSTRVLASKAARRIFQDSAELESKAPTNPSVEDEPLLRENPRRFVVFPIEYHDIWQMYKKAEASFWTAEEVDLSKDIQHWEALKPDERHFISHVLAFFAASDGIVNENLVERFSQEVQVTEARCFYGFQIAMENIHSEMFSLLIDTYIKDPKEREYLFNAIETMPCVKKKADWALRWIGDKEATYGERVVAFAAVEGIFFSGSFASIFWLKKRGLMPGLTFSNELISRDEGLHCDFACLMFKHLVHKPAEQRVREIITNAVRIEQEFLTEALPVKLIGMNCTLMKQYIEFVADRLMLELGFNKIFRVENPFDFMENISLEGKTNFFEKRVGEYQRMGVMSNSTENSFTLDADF
Put plainly: Inhibition of Y177F-R2-dependent RR activity. The settings on record: dATP in presence of relatively high ATP.

For another experiment, the system named is HSV. The settings on record: cited from earlier work.
For a further experiment, the system named is HSV type 1. The settings on record: cited from earlier work.
For a further experiment, the system named is HSV type 2. Conditions: cell culture; read-out: EC50, replication of HSV type 2; cited from earlier work.
Another experiment relates to HSV-1. The settings on record: murine ocular model; cited from earlier work.

What is called pIC50 is the negative decadic logarithm of the IC50, by convention in mol/L. With `Nc1ncnc2c1ncn2[C@H]1C[C@H](O)[C@@H](COP(=O)(O)OP(=O)(O)OP(=O)(O)O)O1` [dATP], in experiment [1], the negative logarithm of the IC50 (pIC50) was 4.70.

In the case of YAGAVVNDL, the “Inhibition of viral growth in cell culture” value with HSV is “did not inhibit viral growth in cell culture”.

Broadly, the pEC50 is −log10 of the EC50, conventionally taken in molar units. In the case of `CC(C)[C@@H](C(=O)N[C@H](C(=O)N[C@@H](CC(=O)N1CCCC1)C(=O)N[C@H](C(=O)N[C@H](CO)CC(C)(C)C)C1(C(=O)O)CCCC1)C(C)(C)C)N(C)C(=O)C(Cc1ccccc1)Cc1ccccc1` [BI-LD-1263] (Dibenzylacetyl-[NMeV][Tle]D(Pyrrolidide)[Asp(3,3-(CH2)4)]-{Leu(γ-Me)ol}), the “Combination with acyclovir in cell culture” value in the experiment on HSV type 1 (HSV types 1 and 2) is “synergistic effect”. The negative logarithm of the EC50 (pEC50) in the experiment with HSV type 1 (cell culture, read-out: EC50, replication of HSV type 1) is 5.52; with HSV type 2, 5.40. For the same compound, the “Severity of HSV-1-induced keratitis” value in the experiment with HSV-1 is “reduces the severity”.

Values taken from patent US6030942A, “Peptides peptide analogs peptidomimetics and other small molecules useful for inhibiting the activity of ribonucleotide reductase” (The Trustees of the University of Pennsylvania, priority 1998, dated 2000).
